Assay results from PMC6920923, “Improving In Vivo Brain Delivery of Monoclonal Antibody Using Novel Cyclic Peptides” (Pharmaceutics, 2019).
“Also recorded” adds a separate entry of the source. Positions of bridges follow the written chain, without caps; N, C: chain ends. Residues, ends and D or L forms follow the SMILES beside them.

Columns and labels:
brains of C57BL/6 mice = assay: In vivo brain delivery of IRdye800CW-IgG mAb (NIRF quantification); details: n = 3; for amount of IgG mAb in the brain (brain deposition): IgG mAb 21.6 nmol/kg with or without 13 µmol/kg peptide, i.v. tail vein, 15 min circulation, PBS/0.5% Tween-20 perfusion, NIRF (Odyssey CLx) of brain homogenate, mean ± SEM; for brain delivery of IgG mAb compared to control (IgG mAb alone), in words: IgG mAb 21.6 nmol/kg, peptide 13 µmol/kg i.v., ANOVA Student–Newman–Keuls
Procedure: The activity of each peptide in enhancing BBB penetration was evaluated by delivering IRdye800CW donkey anti-goat IgG mAb in C57BL/6 mice; the amounts of mAb in the brain were determined using near infrared fluorescence (NIRF) imaging. Each group contains 3 mice per group (n = 3) with a mixture of male and female mice, selected randomly for each arm of the study. The injection solution was prepared by adding 600 µL PBS into 0.5 mg lyophilized IgG mAb; then, approximately 1.5 mg lyophilized peptide was added into the mixture yielding the injectable formulation. A 100 µL solution of a mixture containing IgG mAb (21.6 nmol/kg) along with 13 µmol/kg peptide was administered via tail vein. As a control, 100 µL of IgG mAb alone was administered via i.v. route. After the delivered molecules had been circulating for 15 min, the mice were sacrificed; then, a mixture of PBS with 0.5% Tween-20 was administered for cardiac perfusion to remove the blood and delivered molecules from the brain microvessels. The brain and other organs such as lung, heart, spleen, liver, and kidney were harvested and rinsed with PBS. The isolated organs were scanned with Odyssey® CLx for mAb quantification.
The brain deposition of IgG mAb was also quantified by NIRF imaging in brain homogenates. The isolated brains were mechanically homogenized in 2.0 mL of PBS. To make the standard solutions, IRDye800CW IgG mAb stock solution (70 µg/mL) was prepared; it was then diluted with various amounts of PBS to make six different mAb concentrations. To generate a calibration curve, the brain homogenate (200 µL) was aliquoted out to a 96-well plate. A total of 10 µL of each concentration of IgG mAb was added to three different wells of blank brain homogenates. The standard spiked homogenates were at a range of 10–200 ng/mL IgG mAb in brain homogenate. The wells were scanned using the Odyssey® CLx scanner, and the signal intensities vs. concentrations of mAb per gram of brain were used to generate a calibration curve.
ANOVA with Student–Newman–Keuls was used to compare the data for determining statistical significance for IgG mAb deposition in the brains. A p-value of less than 0.05 was used as a criterion for a significant difference in data comparison. Numeric results are presented as: mean ± SEM.
A calibration curve was generated to determine the amount of IgG mAb in the brain by spiking blank brain homogenates with a concentration range from 10 to 200 ng/mL, and good linearity with R^2 ≥ 0.98 was achieved. […] The average amounts of IgG mAb in the brains of HAV6-treated and control animals were 3.4 ± 0.4 and 4.0 ± 0.5 pmol/g brain, respectively. In contrast, the average amounts of mAb in the brains of cyclic HAVN1- and HAVN2-treated mice were 8.6 ± 0.5 and 8.8 ± 0.6 pmol/g brain, respectively. The BBB modulatory activities of ADTC5, linear ADTHAV, and cyclic ADTHAV were also compared to the control (Figure 5). […] The average brain deposition of IgG mAb were 11.8 ± 0.5, 15.7 ± 0.8, and 13.3 ± 0.7 pmol/g brain for linear ADTHAV, cyclic ADTHAV, and ADTC5, respectively.

MDCK cell monolayers = details: cited from earlier work
Procedure: Previously, cyclic cHAVc1 (cyclo(1,8)Ac-CSHAVASC-NH2) and cHAVc3 (cyclo(1,6)Ac-CSHAVC-NH2) were prepared and compared to a linear HAV4 (Ac-SHAVAS-NH2) in modulating the intercellular junctions in vitro and in vivo [19]. […] An alanine scanning study was carried out to evaluate the role of each amino acid in HAV6 peptide, and the biological activity of each alanine mutant peptide was evaluated in lowering the TEER values of MDCK cell monolayers. Mutation of the Ser1 to Ala1 residue reduced the junction modulatory activity of the HAV6 mutant; ...

EC1 domain of E-cadherin [1] = molecular target: T1, EC1 domain of E-cadherin (Homo sapiens, UniProt P12830); assay: SPR binding to immobilized EC1 domain of E-cadherin; details: authors' separate study; for Kd: EC1 immobilized on streptavidin chip via Streptag I at N-terminus
T1 sequence (P12830 155-262 limits assumed): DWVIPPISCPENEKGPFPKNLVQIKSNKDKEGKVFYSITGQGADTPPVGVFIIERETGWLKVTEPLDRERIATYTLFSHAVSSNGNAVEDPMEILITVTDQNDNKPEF
Excerpt: However, it was not yet clear whether the difference in activity was due to additive activity by the two sequences (Thr-Pro-Pro-Val and Ser-His-Ala-Val) or domination by only one sequence. As mentioned above, there was a trend that cyclic ADTHAV was slightly better than ADTC5. Because it is difficult to differentiate the activities of cyclic ADTHAV and ADTC5 in vivo, we compared their binding properties to the EC1 domain of E-cadherin using SPR experiments in a separate study. After optimizing the SPR running conditions, the EC1 protein was immobilized on the streptavidin chip via the Streptag I sequence on the N-terminus of the EC1 domain followed by injection of various peptide concentrations. […] In the future, the mechanism of cyclic ADTHAV binding to the EC1-domains of E-cadherin and VE-cadherin will be evaluated.

EC1 domain of E-cadherin [2] = assay: SPR; EC1 protein immobilised on a streptavidin chip via the Streptag I sequence on its N-terminus; various peptide concentrations injected

For Ac-TPPVSHAV-NH2 [linear ADTHAV], the “amount of IgG mAb in the brain (brain deposition)” value (shortened to “amount of IgG mAb in the brain”) (brains of C57BL/6 mice) was 11.8 ± 0.5 pmol/g brain and the “brain delivery of IgG mAb compared to control (IgG mAb alone), in words” value (brains of C57BL/6 mice; 15 min) was “significantly better than in the PBS control”.

In the case of “Cyclo(1,6)SHAVSS (head to tail) [HAVN1, N-to-C-termini cyclo-hexapeptide derived from HAV6]”, the “BBB modulatory activity / IgG mAb brain delivery compared to HAV6, in words” value (brains of C57BL/6 mice; 13 µmol/kg peptide, 15 min) is reported as “significantly enhanced; also recorded: improvement in the BBB modulatory activity; also recorded: better BBB modulatory effects than their linear counterpart, HAV6”, the “amount of IgG mAb in the brain” value (brains of C57BL/6 mice) is reported as 8.6 ± 0.5 pmol/g brain and the “brain delivery of IgG mAb compared to control (IgG mAb alone), in words” value (brains of C57BL/6 mice; 15 min) is reported as “significantly enhanced”.

In the case of “cyclo(1,8)Ac-CSHAVASC-NH2 (disulfide) [cHAVc1, earlier cyclic HAV peptide]”, the “junction modulatory activity in MDCK cell monolayers, in words” value (MDCK cell monolayers; compared to HAV4 (and cHAVc1), ref [19]) is given as “same junction modulatory activity as HAV4 peptide”.

For “Ac-SHAVAS-NH2 [HAV4, earlier linear HAV peptide]”, the “junction modulatory activity of HAV6 analogues (alanine scan), in words” value (MDCK cell monolayers; lowering TEER of MDCK cell monolayers, ref [34]) is listed as “enhanced modulatory activity of the peptide compared to HAV6”.

For CC(C)[C@@H]1NC(=O)[C@H](C)NC(=O)[C@H](Cc2c[nH]cn2)NC(=O)[C@H](CO)NC(=O)[C@H](C(C)C)NC(=O)[C@@H]2CCCN2C(=O)[C@@H]2CCCN2C(=O)[C@H]([C@@H](C)O)NC1=O [cyclic ADTHAV, Cyclo(1,8)TPPVSHAV] (cyclo(TPPVSHAV)), the Kd (EC1 domain of E-cadherin [1]) was 0.114 µM, the “binding affinity to EC1 domain of E-cadherin vs ADTC5, in words” value (EC1 domain of E-cadherin [1]) was “higher binding affinity” and the “binding affinity to EC1 domain of E-cadherin vs ADTC5, in words” value (EC1 domain of E-cadherin [1]; listed as Cyclic ADTHAV) was “better binding affinity to the EC1 domain of E-cadherin than does ADTC5”. The “BBB modulatory activity to deliver IgG mAb compared to cyclic HAVN2, in words” value (brains of C57BL/6 mice; 13 µmol/kg peptide, 15 min) was “significantly better than that of cyclic HAVN2”, the “amount of IgG mAb in the brain” value (brains of C57BL/6 mice) was 15.7 ± 0.8 pmol/g brain and the “brain delivery of IgG mAb compared to control (IgG mAb alone), in words” value (brains of C57BL/6 mice; 15 min) was “significantly better than in the PBS control”.

In the case of “Cyclo(1,5)SHAVS (head to tail) [HAVN2, N-to-C-termini cyclo-pentapeptide derived from HAV6]”, the “BBB modulatory activity / IgG mAb brain delivery compared to HAV6, in words” value (brains of C57BL/6 mice; 13 µmol/kg peptide, 15 min) is reported as “significantly enhanced; also recorded: improvement in the BBB modulatory activity; also recorded: better BBB modulatory effects than their linear counterpart, HAV6”, the “BBB modulatory activity compared to HAVN1, in words” value (brains of C57BL/6 mice; 13 µmol/kg peptide, 15 min) is reported as “removal of one serine residue did not influence the BBB modulatory activity of HAVN2 compared to HAVN1” and the “amount of IgG mAb in the brain” value (brains of C57BL/6 mice) is reported as 8.8 ± 0.6 pmol/g brain. For the same molecule, the “brain delivery of IgG mAb compared to control (IgG mAb alone), in words” value (brains of C57BL/6 mice; 15 min) was “significantly enhanced”.

In the case of CC(=O)N[C@H]1CSSC[C@@H](C(N)=O)NC(=O)[C@H](C(C)C)NC(=O)[C@@H]2CCCN2C(=O)[C@@H]2CCCN2C(=O)[C@H]([C@@H](C)O)NC(=O)[C@H](CC(=O)O)NC1=O [ADTC5, Cyclo(1,7)Ac-CDTPPVC-NH2] (Ac-CDTPPVC-NH2; disulfide 1-7), the Kd (EC1 domain of E-cadherin [1]) is reported as 26.8 µM.

B1: Cyclic ADTC5 (peptide)
peptide: Ac-CDTPPVC-NH2
modifications: disulfide 1-7
SMILES: CC(=O)N[C@H]1CSSC[C@@H](C(N)=O)NC(=O)[C@H](C(C)C)NC(=O)[C@@H]2CCCN2C(=O)[C@@H]2CCCN2C(=O)[C@H]([C@@H](C)O)NC(=O)[C@H](CC(=O)O)NC1=O
For B1, the Kd (EC1 domain of E-cadherin [2]) was 26.8 µM.

With TPPVSHAV (cyclo(1,8): N-to-C terminal peptide bond) [Cyclic ADTHAV] the Kd (EC1 domain of E-cadherin [2]) was 0.114 µM.
